Measurements taken from patent publication US12502388B2, “Lanthionine synthetase C-like 2-based therapeutics” (NImmune Biopharma, Inc., priority 2014, dated 2025).
Entries after “also recorded” stand apart in the source; their conditions may differ.

Legend:
[1] = target: T1, LANCL2 (Homo sapiens, UniProt Q9NS86); test: Surface plasmon resonance (BIACORE T200) binding to immobilized LANCL2; conditions: for Kd: unit inferred, read-out: SPR KD value
T1 sequence (Q9NS86 1-450): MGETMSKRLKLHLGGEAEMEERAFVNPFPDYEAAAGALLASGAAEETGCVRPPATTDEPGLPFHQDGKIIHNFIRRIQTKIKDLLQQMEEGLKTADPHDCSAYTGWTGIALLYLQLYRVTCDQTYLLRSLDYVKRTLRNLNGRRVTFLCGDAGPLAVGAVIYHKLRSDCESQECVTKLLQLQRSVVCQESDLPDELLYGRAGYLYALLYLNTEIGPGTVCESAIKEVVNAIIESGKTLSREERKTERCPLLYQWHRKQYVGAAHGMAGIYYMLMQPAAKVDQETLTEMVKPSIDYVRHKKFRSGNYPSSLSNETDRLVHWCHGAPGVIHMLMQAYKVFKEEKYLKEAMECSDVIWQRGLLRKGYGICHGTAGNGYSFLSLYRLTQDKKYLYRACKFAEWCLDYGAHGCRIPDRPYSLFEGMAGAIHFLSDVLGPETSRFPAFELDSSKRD
Description: Kinetic determination of LANCL2-small molecule interaction. […] Data were generated in a dose dependent (5-8 titration points) manner in triplicate, and analyzed to determine binding model (Langmuir, conformational shift, etc.), real time associated and disassociation constants, and equilibrium dissociation constant. SPR technology allowed validation of specific LANCL2-phytochemical interactions as well as to gain gold-standard insight into mechanism and rate of binding. The experiments were performed on carboxymethyldextran (CM5) sensor chips by covalently attaching LANCL2 to by amine coupling. Flow cells 1 and 2 of the sensor chip were activated for 720 sec at 10 μl/min with of 1:1 mixture of 0.1 M N-hydroxysuccinimide (NHS) and 0.5 M 1-ethyl-3-(−3-dimethylaminopropyl)-carbodiimide hydrochloride (EDC). Stock LANCL2 (0.41 mg/mL) was diluted to 8.2 μg/mL (1:50 dilution) in 10 mM sodium acetate, pH 5.0 and injected over the activated flow cell 2 surface for 1000 sec at a flow rate of 10 μl/min. After the capture of LANCL2 on flow cell 2 (11000 RU), surfaces of flow cells 1 and 2 were deactivated by injecting 1M ethanolamine for 720 sec at 10 μl/min. The running buffer was 25 mM MOPS containing 0.05% T-20 and 0.15 M NaCl, pH 6.5. […] Each sample was injected for 60 sec (contact time) followed by a dissociation time of 60 sec at a flow rate of 100 μL/min. A stabilization time of 180 sec was used before the next injection. Data was analyzed with BIACORE™ T200 Evaluation Software (version 1) to determine the affinity binding constant (KD) using a 1:1 binding model.
We immobilized purified recombinant LANCL2 protein on BIACORE™ sensor chips and injected small molecules over the protein surface using the microfluidic system of the instrument. Changes in the total mass on chip surface were measured, which corresponds to the small binding to the protein. […] These fast interactions are beyond the technical abilities of the instrument. Therefore, reliable association rate constant (ka) and dissociation rate constant (kd) were not determined. The equilibrium dissociation constant (KD) is commonly used to describe the affinity between a ligand and a protein, such as how tightly a ligand binds to a particular protein. Ligand-protein affinities are influenced by non-covalent intermolecular interactions between the two molecules such as hydrogen bonding, electrostatic interactions, hydrophobic and Van der Waals forces. By plotting the equilibrium binding level against the compound concentration, we were able to measure the steady state affinity (KD) for each interaction (FIG. 8, panels B and D).
In this case we also immobilized purified recombinant LANCL2 protein on BIACORE™ sensor chips and injected small molecules over the protein surface using the microfluidic system of the instrument. Changes in the total mass on chip surface were measured, which corresponds to the small binding to the protein. […] This longer binding can potentially impact the activation of the LANCL2 pathway by triggering more efficacious anti-inflammatory and anti-diabetic and other therapeutic responses.

[2] = system: C57BL/6J mice with DSS colitis
Method: Mice. […] All mice were maintained in animal facilities.
DSS-induced colitis. Colitis was induced in C57BL/6J mice by administration of 5% (w/v) dextran sodium sulfate (DSS; molecular weight 42 kDa; ICN Biochemicals, Aurora, OH) added to the drinking water. Colonic inflammation was assessed 7 days after DSS treatment. […] DSS-treated, vehicle-treated mice, and iv. […] Twelve mice were included in each group.
Quantitative Real-Time PCR. […] Primers were designed using Oligo 6 software.

[3] = system: IL-10-/- mice with chronic colitis
[4] = system: RAG2-/- mice transferred with naive CD4+ T cells
[5] = system: NOD mice
Description: Mice. […] The mice were maintained in animal facilities.
(§1) Assessment of body weight and glucose tolerance.

[6] = system: C57BL/6 mice fed a high-fat diet
[7] = system: db/db mice
Description: Mice and dietary treatments. […] The mice were maintained in animal facilities.
as §1

[8] = system: mice infected with influenza virus
Method: Intranasal infection of mice with influenza virus. Mice were anesthetized with 2-5% isofluorane using a vaporizer station, and 50 μL of virus dilution at 10^3 TCID50 was administered through the nostrils (25 μL each one). Mice were then placed in their cages and watched for recovery of anesthesia.
This procedure caused no pain or distress.
Monitoring of mice and disease activity and weighing. Mice were monitored once daily after the infection (or every 4 hours if they developed severe clinical signs of disease equivalent to disease score 2) and were euthanized prior to the planned endpoint if they developed significant signs of illness as measured by weight loss (i.e., 25% gradual loss of initial body weight), dehydration, loss of mobility, guarding/protection of painful area, ruffled fur (piloerection). Mice were weighed once a day for the duration of the experiment.

[9] = flow cytometry, wild-type vs LANCL2-/-
[10] = gene expression, dose-dependent
[11] = CD4+ T cells from LANCL2-/- donors
[12] = gene expression vs untreated mice

O=C(Nc1ccc(NC(=O)c2cccc(-c3nc4ccccc4[nH]3)c2)cc1)c1cccc(-c2nc3ccccc3[nH]2)c1 [BT-6]
binding to LANCL2 by SPR in words [1]: strongly bind
on and off rates in SPR sensorgrams [1]: very fast to bind but not as fast as off

O=C(c1cccc(-c2nc3ccccc3[nH]2)n1)N1CCN(C(=O)c2cccc(-c3nc4ccccc4[nH]3)n2)CC1 [BT-11]
binding to LANCL2 by SPR in words [1]: strongly bind
on and off rates in SPR sensorgrams [1]: very fast on rates and very fast off rates
Kd [1]: 6.3 µM
disease activity score ([2]; 5% DSS, 7-day challenge, oral BT-11 vs vehicle): significantly improved
leukocytic infiltration, mucosal thickening and epithelial erosion, dose-response ([2]; 10 to 80 mg/Kg): decreased in mice with colitis as the dose of BT-11 was increased
histopathological lesions of the colonic mucosa in LANCL2-/- mice ([2]; LANCL2-/- mice, vehicle or BT-11): the loss of LANCL2 completely abrogates the effect of BT-11
upregulation of IL-10 secretion in colon and spleen ([2]; LANCL2 knockout mice): completely abrogated in LANCL2 knockout mice
decrease of inflammation in the gut mucosa (leukocytic infiltration, epithelial erosion, mucosal thickening) ([2]; colonic histopathology): 5 times
macroscopic lesions in spleen, MLNs and colon ([2]; day 7 post-challenge): significantly decreased
colonic IL-10 expression by flow cytometry ([2]; dose-response study): follows dose-response dynamics
FOXP3 expression in the MLN ([2]; dose-response study, flow cytometry): dose-dependent
upregulation of MHC-II+ CD11c+ granulocytes ([2]; flow cytometry, colon, wild-type vs LANCL2-/-): LANCL2-dependent
reduction of colonic TNFα expressing cells ([2]; flow cytometry, doses 10, 20, 40, 80 mg/Kg): significantly different at both 40 and 80 mg/Kg of BT-11, but not on lower doses
reduction of MCP1 in colon and MLN [2, 9]: LANCL2-dependent
secretion of TNFα in the colon [2, 9]: LANCL2-dependent
colonic gene expression of IL-10 ([2]; mouse, in vivo): upregulated
colonic gene expression of LANCL2 ([2]; mouse, in vivo): upregulated
colonic gene expression of TNFα ([2]; mouse, in vivo): down-regulated
macroscopic score in colon, MLN and spleen in LANCL2-/- mice ([2]; wild-type vs LANCL2-/- littermates): the loss of LANCL2 abrogated the decrease in macroscopic score
recovery from colitis (disease activity index) in LANCL2-/- mice ([2]; wild-type vs LANCL2-/- mice): the loss of LANCL2 prevented the mice to recover
disease activity index scores, highest dose vs lower doses ([3]; 80 mg/Kg, from week 13 to end): significantly reduced the scores in comparison to those treated with either 20 or 40 mg/Kg
macroscopic scores in spleen, MLNs and colon ([3]; 19 weeks, concentrations as low as 20 mg/Kg): greatly and significantly reduced
disease activity index scores ([3]; 20, 40 and 80 mg/Kg vs vehicle): significantly decreased
colonic histopathology (leukocytic infiltration, epithelial erosion, mucosal thickening) ([3]; H&E colon sections): significantly reduced inflammation
FOXP3-expressing CD4+ T cells in MLN and spleen ([3]; flow cytometry): upregulation
FOXP3-expressing CD4+ T cells in the colonic LP ([3]; flow cytometry): upregulation
effector Th17 cells (RORγt) in the MLN ([3]; flow cytometry): downregulated
percentage of F4/80+ macrophages in colonic lamina propria ([3]; flow cytometry): significantly decreased
percentage of MHC-II+ CD11c+ dendritic cells in colonic lamina propria ([3]; flow cytometry): significantly decreased
percentage of effector Th1 cells in colonic lamina propria ([3]; flow cytometry): significantly decreased
Th1 cells in the spleen ([3]; flow cytometry, dose response): downregulation
colonic expression of LANCL2 [3, 10]: upregulates
colonic expression of TNFα [3, 10]: downregulates
effects on disease activity and histopathology with PPARγ-/- donor CD4+ T cells ([4]; 80 mg/Kg): PPARγ independent
macroscopic scores in spleen, MLNs, colon and ileum ([4]; 80 mg/Kg, 11 weeks): greatly and significantly reduced
decrease in leukocytic infiltration, epithelial erosion and mucosal thickening in LANCL2-/- transferred recipients [4, 11]: greatly abrogated
effect on disease activity index with LANCL2-/- donor cells [4, 11]: completely abrogated with the loss of LANCL2
macroscopic scores with loss of LANCL2 ([4]; LANCL2-/- cells transferred, 80 mg/Kg): the loss of LANCL2 completely abrogated the effect of BT-11
IFNγ levels in total CD45+ leukocytes in the colon ([4]; flow cytometry): decrease
IL-10 in CD4+ T cells in the colonic mucosa ([4]; flow cytometry): promoting the expression
expression of IFNγ in the CD45+ population in MLN and spleen ([4]; flow cytometry): decreased
levels of FOXP3 and IL-10 in spleen and MLN ([4]; flow cytometry): increases
regulatory CD4+ T cells (FOXP3) in the colonic mucosa ([4]; flow cytometry): upregulated
infiltrating F4/80+ CD11b+ pro-inflammatory macrophages in the colon ([4]; flow cytometry, 11 weeks of treatment): significantly lower level
weight loss ([4]; from 7 weeks until end, vs vehicle): significantly improved
epithelial erosion in the colon ([4]; histopathology): significantly lower
inflammation: leukocytic infiltration and mucosal thickening in colon and ileum ([4]; histopathology): significantly reduced inflammation
disease activity index score ([4]; wild-type CD4+ T cells transferred, BT-11 vs vehicle): significantly reduced
fasting blood glucose ([5]; 12 h fasting, weeks 0-11, 80 mg/kg/d vs vehicle): significantly lower levels
clinical histopathological lesions in the pancreas ([5]; vs vehicle): significantly reduces
insulin levels in plasma ([5]; week 5): significantly increased levels
normalization of blood glucose after IP glucose challenge ([6]; 2 g/Kg glucose IP after 12 h fasting): significantly faster
F4/80+ CD11b+ pro-inflammatory macrophages in white adipose tissue ([6]; flow cytometry): significantly reduced
pro-inflammatory granulocytes (GR1+Ly6chigh) in white adipose tissue ([6]; flow cytometry): significantly reduced
expression of LANCL2 in WAT [6, 12]: higher expression levels
mRNA level of MCP-1 in WAT [6, 12]: significantly lower mRNA levels
mRNA level of TNFα in WAT [6, 12]: significantly lower mRNA levels
fasting blood glucose ([6]; week 12 of high-fat feeding, vs vehicle): significantly decreased
glucose levels following glucose challenge ([7]; 0 to 265 minutes after IP glucose): fell toward normal levels more rapidly
fasting blood glucose ([7]; 80 mg/Kg daily oral gavage, weeks 1 and 3): significantly decreased
glucose prior to the IP glucose challenge (time 0) ([7]; 12-h fast): significantly decreases
morbidity (mice losing over 15% of body weight) ([8]; 80 mg/Kg, from day 6 post-infection, vs vehicle): less morbidity
clinical score for physical appearance ([8]; 40 and 80 mg/Kg): significantly reduced
activity clinical score ([8]; from day 3, oral 80 or 40 mg/Kg daily): significantly reduced

O=C(c1cccc(-c2nc3ccccc3[nH]2)n1)N1CCN(C(=O)c2cccc(-c3nc4ccccc4o3)n2)CC1 [BT-15]
binding to LANCL2 by SPR in words [1]: strongly bind
on and off rates in SPR sensorgrams [1]: very fast on rates and very fast off rates
Kd [1]: 11.4 µM

O=C1CC=C(/C=C/c2ccc(C(=O)O)o2)CC1 [BT-ABA-5a]
binding to LANCL2 by SPR in words [1]: strongly bind
on and off rates in SPR sensorgrams [1]: very fast to bind but not as fast as off; also recorded: slowest off rate
